Measured values taken from BindingDB's records for PubMed 20126400 (University of Oklahoma, 2010).
pKi: −log10 of the molar value.

Key:
Assay in all cases: Ray2010 Assay 74
Histamine H2 receptor = Histamine H2 receptor (Homo sapiens, UniProt P25021)
Text: (§1) Table S2 shows raw Ki data for the current study combined with data collected from the literature for the ten additional compounds.

[1] = target: 5-hydroxytryptamine receptor 1D (Homo sapiens, UniProt P28221)
Text: as §1

[2] = target: Glutamate receptor ionotropic, NMDA 2A (Homo sapiens, UniProt Q12879)
Text: as §1

[3] = target: Sodium-dependent serotonin transporter (Homo sapiens, UniProt P31645)
Text: as §1

D(4) dopamine receptor = target: T1, D(4) dopamine receptor (Homo sapiens, UniProt P21917)
T1 sequence (P21917 whole entry): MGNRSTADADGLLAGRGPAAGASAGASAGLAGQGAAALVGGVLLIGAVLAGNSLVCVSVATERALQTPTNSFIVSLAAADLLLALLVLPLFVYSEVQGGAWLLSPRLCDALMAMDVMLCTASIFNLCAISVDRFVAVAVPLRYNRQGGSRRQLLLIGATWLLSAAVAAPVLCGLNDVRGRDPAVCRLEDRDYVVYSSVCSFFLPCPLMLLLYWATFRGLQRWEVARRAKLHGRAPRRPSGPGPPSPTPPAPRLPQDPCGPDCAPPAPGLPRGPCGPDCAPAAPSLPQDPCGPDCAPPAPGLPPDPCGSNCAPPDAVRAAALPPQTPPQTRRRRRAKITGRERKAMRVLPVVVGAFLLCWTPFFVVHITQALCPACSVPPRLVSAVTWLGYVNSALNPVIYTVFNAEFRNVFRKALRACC
Text: as §1

[4] = target: T2, Alpha-2A adrenergic receptor (Homo sapiens, UniProt P08913)
T2 sequence (P08913 whole entry): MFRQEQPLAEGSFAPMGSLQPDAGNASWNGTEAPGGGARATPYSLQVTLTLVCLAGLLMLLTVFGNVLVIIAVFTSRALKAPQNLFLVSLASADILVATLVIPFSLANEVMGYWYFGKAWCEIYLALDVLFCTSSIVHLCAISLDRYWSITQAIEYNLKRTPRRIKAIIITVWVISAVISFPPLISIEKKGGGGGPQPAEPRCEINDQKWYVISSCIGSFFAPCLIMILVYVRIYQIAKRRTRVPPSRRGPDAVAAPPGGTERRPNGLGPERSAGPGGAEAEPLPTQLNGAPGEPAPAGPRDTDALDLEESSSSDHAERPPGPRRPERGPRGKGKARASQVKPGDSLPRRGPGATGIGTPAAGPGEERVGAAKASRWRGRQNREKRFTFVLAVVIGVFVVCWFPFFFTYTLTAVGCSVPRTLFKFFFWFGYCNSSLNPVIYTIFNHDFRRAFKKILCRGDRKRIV
Text: as §1

[5] = target: Sodium-dependent noradrenaline transporter (Homo sapiens, UniProt P23975)
Text: as §1

[6] = target: Kappa-type opioid receptor (Homo sapiens, UniProt P41145)
Text: as §1

[7] = target: T3, 5-hydroxytryptamine receptor 3A (Homo sapiens, UniProt P46098)
T3 sequence (P46098 whole entry): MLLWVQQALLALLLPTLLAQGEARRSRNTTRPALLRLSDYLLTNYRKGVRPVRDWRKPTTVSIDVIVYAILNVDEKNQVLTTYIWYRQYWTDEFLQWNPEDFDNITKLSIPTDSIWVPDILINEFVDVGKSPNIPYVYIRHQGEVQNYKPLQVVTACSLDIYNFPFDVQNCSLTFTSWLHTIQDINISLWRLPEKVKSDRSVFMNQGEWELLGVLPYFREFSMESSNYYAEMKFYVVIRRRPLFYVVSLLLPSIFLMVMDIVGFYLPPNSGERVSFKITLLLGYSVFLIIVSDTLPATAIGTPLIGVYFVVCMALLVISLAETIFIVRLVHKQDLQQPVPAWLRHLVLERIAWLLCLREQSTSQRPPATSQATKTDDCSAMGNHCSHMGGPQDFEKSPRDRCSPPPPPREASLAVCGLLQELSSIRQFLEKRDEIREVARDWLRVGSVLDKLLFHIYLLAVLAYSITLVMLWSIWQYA
Text: as §1

[8] = target: 5-hydroxytryptamine receptor 1B (Homo sapiens, UniProt P28222)
Text: as §1

[9] = target: T4, Gamma-aminobutyric acid receptor subunit alpha-1 (Homo sapiens, UniProt P14867)
T4 sequence (P14867 whole entry): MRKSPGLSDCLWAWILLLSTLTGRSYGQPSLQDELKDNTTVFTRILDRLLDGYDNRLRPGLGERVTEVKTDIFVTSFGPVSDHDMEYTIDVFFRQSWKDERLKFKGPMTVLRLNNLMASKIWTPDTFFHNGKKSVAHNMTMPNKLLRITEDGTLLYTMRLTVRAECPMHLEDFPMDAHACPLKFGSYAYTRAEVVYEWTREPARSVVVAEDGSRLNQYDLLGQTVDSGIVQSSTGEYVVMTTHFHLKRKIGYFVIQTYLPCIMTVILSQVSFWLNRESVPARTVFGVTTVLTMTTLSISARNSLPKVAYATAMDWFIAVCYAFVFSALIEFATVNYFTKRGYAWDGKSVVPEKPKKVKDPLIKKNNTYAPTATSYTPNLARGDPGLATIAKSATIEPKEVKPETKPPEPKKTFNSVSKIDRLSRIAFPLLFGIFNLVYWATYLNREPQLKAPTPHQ
Text: as §1

[10] = target: Delta-type opioid receptor (Homo sapiens, UniProt P41143)
Text: as §1

[11] = target: 5-hydroxytryptamine receptor 6 (Homo sapiens, UniProt P50406)
Text: as §1

[12] = target: T5, Alpha-1A adrenergic receptor (Homo sapiens, UniProt P35348)
T5 sequence (P35348 whole entry): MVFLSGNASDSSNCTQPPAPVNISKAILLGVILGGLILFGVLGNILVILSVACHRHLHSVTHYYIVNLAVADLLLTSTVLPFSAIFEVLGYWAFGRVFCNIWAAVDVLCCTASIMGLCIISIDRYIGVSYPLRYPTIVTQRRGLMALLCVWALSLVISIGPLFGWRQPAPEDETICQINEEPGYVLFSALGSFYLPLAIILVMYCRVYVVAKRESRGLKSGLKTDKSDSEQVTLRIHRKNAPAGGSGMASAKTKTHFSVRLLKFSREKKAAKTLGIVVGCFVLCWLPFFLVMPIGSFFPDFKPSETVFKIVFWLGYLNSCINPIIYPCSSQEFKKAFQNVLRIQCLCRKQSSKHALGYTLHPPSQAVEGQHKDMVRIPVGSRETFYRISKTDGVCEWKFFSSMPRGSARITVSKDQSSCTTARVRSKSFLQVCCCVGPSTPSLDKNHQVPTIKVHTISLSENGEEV
Text: as §1

[13] = target: 5-hydroxytryptamine receptor 1E (Homo sapiens, UniProt P28566)
Text: as §1

Chain of 5-hydroxytryptamine receptor 1E (P28566 whole entry): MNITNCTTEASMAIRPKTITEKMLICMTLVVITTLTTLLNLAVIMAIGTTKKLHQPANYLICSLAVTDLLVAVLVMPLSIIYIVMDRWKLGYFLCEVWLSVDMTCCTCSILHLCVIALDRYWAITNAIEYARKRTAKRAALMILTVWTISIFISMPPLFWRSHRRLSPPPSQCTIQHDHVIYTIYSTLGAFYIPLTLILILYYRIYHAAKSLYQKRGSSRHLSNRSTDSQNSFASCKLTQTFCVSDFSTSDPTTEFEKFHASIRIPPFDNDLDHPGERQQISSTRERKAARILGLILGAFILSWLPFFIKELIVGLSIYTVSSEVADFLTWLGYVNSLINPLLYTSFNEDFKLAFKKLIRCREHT
Chain of Kappa-type opioid receptor (P41145 whole entry): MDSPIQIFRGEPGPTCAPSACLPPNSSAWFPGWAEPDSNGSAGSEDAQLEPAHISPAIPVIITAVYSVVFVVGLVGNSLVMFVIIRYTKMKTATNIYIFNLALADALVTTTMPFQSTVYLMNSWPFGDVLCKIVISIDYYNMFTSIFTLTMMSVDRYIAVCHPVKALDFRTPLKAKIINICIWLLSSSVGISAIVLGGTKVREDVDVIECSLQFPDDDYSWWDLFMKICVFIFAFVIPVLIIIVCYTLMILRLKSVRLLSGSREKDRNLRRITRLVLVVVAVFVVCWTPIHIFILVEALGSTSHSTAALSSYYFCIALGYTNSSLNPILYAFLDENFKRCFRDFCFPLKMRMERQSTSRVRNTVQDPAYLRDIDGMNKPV
Chain of Glutamate receptor ionotropic, NMDA 2A (Q12879 whole entry): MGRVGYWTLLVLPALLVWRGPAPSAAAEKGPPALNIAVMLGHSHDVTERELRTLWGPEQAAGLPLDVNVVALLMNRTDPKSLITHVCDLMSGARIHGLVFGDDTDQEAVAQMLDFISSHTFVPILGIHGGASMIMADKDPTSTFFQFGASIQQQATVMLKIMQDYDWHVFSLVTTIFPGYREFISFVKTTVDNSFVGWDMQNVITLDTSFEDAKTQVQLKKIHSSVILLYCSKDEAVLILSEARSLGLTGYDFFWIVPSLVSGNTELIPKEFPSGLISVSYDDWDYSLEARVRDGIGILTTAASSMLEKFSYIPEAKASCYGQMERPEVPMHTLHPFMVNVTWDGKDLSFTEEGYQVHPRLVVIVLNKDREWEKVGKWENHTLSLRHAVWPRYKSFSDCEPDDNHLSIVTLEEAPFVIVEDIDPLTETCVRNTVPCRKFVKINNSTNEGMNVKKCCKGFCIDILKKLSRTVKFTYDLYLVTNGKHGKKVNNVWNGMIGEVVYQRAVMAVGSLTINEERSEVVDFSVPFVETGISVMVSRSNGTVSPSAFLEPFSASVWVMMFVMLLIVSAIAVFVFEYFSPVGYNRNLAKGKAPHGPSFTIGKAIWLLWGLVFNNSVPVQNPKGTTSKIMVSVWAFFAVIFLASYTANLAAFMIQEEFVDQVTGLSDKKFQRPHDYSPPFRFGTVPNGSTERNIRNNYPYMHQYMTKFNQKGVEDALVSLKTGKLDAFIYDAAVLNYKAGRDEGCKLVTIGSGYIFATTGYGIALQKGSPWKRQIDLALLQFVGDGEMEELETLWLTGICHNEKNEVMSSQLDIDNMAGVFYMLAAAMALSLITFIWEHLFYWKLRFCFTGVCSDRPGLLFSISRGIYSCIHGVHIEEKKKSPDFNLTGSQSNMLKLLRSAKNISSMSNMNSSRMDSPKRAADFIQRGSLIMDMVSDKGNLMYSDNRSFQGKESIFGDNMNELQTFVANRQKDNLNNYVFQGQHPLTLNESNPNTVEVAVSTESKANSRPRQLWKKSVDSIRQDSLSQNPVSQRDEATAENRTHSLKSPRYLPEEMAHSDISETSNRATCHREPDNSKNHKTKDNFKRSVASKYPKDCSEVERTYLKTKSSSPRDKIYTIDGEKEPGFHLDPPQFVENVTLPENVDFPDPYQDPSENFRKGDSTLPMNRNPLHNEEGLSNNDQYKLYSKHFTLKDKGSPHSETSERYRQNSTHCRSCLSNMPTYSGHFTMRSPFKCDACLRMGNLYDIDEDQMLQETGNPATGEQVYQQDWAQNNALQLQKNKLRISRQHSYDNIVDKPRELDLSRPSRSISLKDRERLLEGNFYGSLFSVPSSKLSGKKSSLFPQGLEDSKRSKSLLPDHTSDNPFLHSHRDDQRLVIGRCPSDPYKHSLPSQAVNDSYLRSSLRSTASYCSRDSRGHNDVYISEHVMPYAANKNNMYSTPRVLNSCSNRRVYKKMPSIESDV
Chain of 5-hydroxytryptamine receptor 6 (P50406 whole entry): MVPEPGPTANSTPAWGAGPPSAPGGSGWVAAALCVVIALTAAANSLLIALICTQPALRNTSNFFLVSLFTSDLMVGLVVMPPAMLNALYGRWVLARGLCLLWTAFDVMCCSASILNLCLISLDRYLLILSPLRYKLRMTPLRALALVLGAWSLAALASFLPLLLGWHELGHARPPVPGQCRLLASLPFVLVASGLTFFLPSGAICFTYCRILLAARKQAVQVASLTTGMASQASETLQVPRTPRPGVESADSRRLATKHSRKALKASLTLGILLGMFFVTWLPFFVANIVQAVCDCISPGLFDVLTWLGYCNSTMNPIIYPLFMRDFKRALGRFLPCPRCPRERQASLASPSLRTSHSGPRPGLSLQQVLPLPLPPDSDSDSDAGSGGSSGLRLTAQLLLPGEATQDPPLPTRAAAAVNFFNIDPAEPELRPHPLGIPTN
Chain of 5-hydroxytryptamine receptor 1B (P28222 whole entry): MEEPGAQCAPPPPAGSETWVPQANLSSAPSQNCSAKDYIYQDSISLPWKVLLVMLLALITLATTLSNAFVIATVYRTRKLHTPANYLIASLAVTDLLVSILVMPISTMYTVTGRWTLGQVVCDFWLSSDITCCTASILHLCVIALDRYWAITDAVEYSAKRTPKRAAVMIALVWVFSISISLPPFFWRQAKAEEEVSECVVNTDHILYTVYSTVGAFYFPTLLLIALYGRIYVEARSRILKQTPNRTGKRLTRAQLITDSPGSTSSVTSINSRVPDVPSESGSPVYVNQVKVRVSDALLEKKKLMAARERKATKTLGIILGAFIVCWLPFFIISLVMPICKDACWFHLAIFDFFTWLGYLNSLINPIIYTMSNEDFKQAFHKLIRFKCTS
Chain of Sodium-dependent serotonin transporter (P31645 whole entry): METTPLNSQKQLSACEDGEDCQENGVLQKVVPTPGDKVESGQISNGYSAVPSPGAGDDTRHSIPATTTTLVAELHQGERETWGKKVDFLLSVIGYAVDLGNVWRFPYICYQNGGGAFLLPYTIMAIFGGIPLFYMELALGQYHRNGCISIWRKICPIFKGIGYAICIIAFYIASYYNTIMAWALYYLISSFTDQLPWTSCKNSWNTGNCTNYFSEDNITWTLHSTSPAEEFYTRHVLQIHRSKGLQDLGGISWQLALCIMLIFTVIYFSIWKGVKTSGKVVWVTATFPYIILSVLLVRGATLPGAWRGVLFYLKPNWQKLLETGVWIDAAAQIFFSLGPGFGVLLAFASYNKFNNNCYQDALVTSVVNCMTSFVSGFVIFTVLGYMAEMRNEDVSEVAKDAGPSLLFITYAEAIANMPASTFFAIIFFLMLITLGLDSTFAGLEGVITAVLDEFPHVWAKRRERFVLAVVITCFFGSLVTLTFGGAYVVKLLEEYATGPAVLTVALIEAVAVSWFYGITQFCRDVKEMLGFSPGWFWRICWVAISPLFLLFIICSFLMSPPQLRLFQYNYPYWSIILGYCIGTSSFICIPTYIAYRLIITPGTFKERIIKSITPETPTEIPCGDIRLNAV
Chain of Delta-type opioid receptor (P41143 whole entry): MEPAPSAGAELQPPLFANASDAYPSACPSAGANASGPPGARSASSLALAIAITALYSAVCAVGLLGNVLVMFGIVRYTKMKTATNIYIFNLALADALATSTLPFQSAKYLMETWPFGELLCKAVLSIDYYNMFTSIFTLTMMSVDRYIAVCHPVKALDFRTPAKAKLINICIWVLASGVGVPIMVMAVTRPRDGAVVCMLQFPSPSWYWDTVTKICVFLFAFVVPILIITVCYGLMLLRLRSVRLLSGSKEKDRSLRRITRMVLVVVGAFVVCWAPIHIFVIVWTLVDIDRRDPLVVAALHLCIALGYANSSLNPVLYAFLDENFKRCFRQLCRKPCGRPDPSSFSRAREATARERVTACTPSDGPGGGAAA
Chain of Sodium-dependent noradrenaline transporter (P23975 whole entry): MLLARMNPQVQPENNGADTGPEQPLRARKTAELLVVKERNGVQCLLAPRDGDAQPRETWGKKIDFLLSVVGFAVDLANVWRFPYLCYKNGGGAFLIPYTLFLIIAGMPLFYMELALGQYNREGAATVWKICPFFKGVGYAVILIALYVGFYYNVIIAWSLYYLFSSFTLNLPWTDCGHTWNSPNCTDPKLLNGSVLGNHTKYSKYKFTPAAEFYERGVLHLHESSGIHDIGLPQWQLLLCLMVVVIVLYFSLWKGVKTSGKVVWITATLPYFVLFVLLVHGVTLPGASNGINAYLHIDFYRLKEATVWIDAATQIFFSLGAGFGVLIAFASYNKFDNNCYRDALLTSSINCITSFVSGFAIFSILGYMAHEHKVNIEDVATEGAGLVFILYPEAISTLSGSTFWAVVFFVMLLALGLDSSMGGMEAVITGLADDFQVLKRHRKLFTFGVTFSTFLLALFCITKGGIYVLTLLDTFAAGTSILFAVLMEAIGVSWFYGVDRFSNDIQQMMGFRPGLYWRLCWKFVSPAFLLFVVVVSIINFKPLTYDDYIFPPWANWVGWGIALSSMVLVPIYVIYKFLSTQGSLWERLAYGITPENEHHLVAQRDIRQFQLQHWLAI
Chain of Histamine H2 receptor (P25021 whole entry): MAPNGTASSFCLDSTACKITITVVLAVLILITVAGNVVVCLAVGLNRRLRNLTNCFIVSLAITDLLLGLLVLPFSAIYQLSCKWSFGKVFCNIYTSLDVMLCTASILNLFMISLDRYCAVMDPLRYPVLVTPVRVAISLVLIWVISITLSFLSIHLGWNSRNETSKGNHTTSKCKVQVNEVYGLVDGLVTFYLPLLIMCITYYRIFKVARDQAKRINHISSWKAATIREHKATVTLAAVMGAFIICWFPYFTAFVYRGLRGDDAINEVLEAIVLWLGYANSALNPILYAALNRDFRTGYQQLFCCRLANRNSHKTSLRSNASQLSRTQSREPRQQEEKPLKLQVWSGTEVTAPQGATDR

Row | Molecule | pKi (Histamine H2 receptor) | pKi [1] | pKi [2] | pKi [3] | pKi (D(4) dopamine receptor) | pKi [4] | pKi [5] | pKi [6] | pKi [7] | pKi [8] | pKi [9] | pKi [10] | pKi [11] | pKi [12] | pKi [13]
1 | CCOc1cc(OC)c(CC(C)N)cc1OC (centres undefined) | < 5.00 | < 5.00 | < 5.00 | < 5.00 | < 5.00 | < 5.00 | < 5.00 | < 5.00 | < 5.00 | < 5.00 | < 5.00 | < 5.00 | < 5.00 | < 5.00 | < 5.00
2 | COc1cc(CCN)cc(OC)c1OC [3,4,5-trimethoxyphenylethylamine] | < 5.00 | < 5.00 | < 5.00 | < 5.00 | < 5.00 | 5.05 | < 5.00 | < 5.00 | < 5.00 | < 5.00 | < 5.00 | < 5.00 | < 5.00 | < 5.00 | 5.28
3 | CCc1cc(OC)c(CCN)cc1OC [2-(2,5-dimethoxy-4-ethylphenyl)ethylamine] | < 5.00 | 7.14 | < 5.00 | < 5.00 | < 5.00 | 6.31 | < 5.00 | < 5.00 | < 5.00 | 6.60 | < 5.00 | < 5.00 | 5.53 | < 5.00 | 6.20
4 | COc1ccc2[nH]cc(CCN(C)C(C)C)c2c1 [5-meo-mipt] | < 5.00 | 7.65 | < 5.00 | 5.19 | 5.20 | 6.76 | < 5.00 | < 5.00 | < 5.00 | 6.52 | < 5.00 | < 5.00 | 6.89 | < 5.00 | 5.46
5 | CAS_82830-44-2::(2R)-1-(4-iodo-2,5-dimethoxyphenyl)propan-2-amine::DOI,(-)::US20250270173, Compound DOI | < 5.00 | 6.34 | < 5.00 | 6.16 | < 5.00 | 7.13 | < 5.00 | < 5.00 | < 5.00 | < 5.00 | < 5.00 | < 5.00 | 5.68 | < 5.00 | 5.99
6 | COc1ccc2[nH]cc(CCN(C(C)C)C(C)C)c2c1 [5-meo-dipt] | < 5.00 | 5.76 | < 5.00 | 5.60 | < 5.00 | < 5.00 | < 5.00 | < 5.00 | < 5.00 | – | < 5.00 | < 5.00 | < 5.00 | < 5.00 | < 5.00
7 | CN(C)CCc1c[nH]c2cc(F)ccc12 [6-f-dmt] | 6.03 | 7.26 | < 5.00 | 6.84 | 5.84 | < 5.00 | < 5.00 | < 5.00 | < 5.00 | 6.66 | < 5.00 | < 5.00 | 7.59 | 6.76 | 6.34
8 | CCc1cc(OC)c(CC(C)N)cc1OC (centres undefined) | < 5.00 | 5.18 | < 5.00 | < 5.00 | < 5.00 | 5.89 | < 5.00 | < 5.00 | < 5.00 | 5.55 | < 5.00 | < 5.00 | < 5.00 | < 5.00 | 5.45
9 | COc1cc(CC(C)N)c(OC)cc1C (stereo not drawn) [(+/-)2-(2,5-Dimethoxy-4-methyl-phenyl)-1-methyl-ethylamine] | < 5.00 | 6.68 | < 5.00 | < 5.00 | < 5.00 | 6.24 | < 5.00 | < 5.00 | < 5.00 | < 5.00 | < 5.00 | < 5.00 | 5.09 | 5.49 | 5.45
10 | CCSc1cc(OC)c(CCN)cc1OC [2C-T-2] | < 5.00 | 7.07 | < 5.00 | < 5.00 | < 5.00 | 6.14 | < 5.00 | < 5.00 | < 5.00 | 6.07 | < 5.00 | < 5.00 | 5.87 | < 5.00 | 6.38
11 | CCCN(CCC)CCc1c[nH]c2ccccc12 [dpt] | < 5.00 | 6.21 | < 5.00 | 6.80 | 5.70 | 6.34 | < 5.00 | < 5.00 | < 5.00 | 6.07 | < 5.00 | < 5.00 | 5.34 | 6.06 | 5.63
12 | CC(C)N(CCc1c[nH]c2ccccc12)C(C)C [dipt] | < 5.00 | 5.43 | < 5.00 | 5.90 | < 5.00 | < 5.00 | < 5.00 | < 5.00 | < 5.00 | < 5.00 | < 5.00 | < 5.00 | < 5.00 | < 5.00 | < 5.00
13 | COc1cc(CCN)c(OC)cc1Br | < 5.00 | 7.58 | < 5.00 | < 5.00 | < 5.00 | 6.51 | < 5.00 | < 5.00 | < 5.00 | 6.98 | < 5.00 | < 5.00 | 6.49 | < 5.00 | 6.92
